This is an account of results in patent publication US9249085B2, “Aniline derivatives, their preparation and their therapeutic application” (FOVEA PHARMACEUTICALS, priority 2011, dated 2016).

pEC50: −log10 of the molar value.

The target of this assay is recombinant human prostanoid EP2 receptor (Homo sapiens (Human), UniProt P43116). Description: Human prostanoid EP2 receptor cellular functional assay (cAMP, HTRF). It is filed as cell-based. The conditions noted are these: for pEC50: CHO cells expressing recombinant human EP2, cAMP by HTRF, 30 min, 37° C., read-out: In vitro functional assay EP2 (h) EC50; for In vitro functional assay EP2 (h) % response: percent of control specific agonist response (10 μM PGE2). As for the experimental part:
Test 1.2: Human Prostanoid EP2 Receptor Cellular Functional Assay
Human CHO cells expressing the recombinant human prostanoid EP2 receptor were suspended in assay medium (HBSS buffer (Invitrogen) containing 20 mM HEPES (pH7.4) and 500 μM isobutyl-methylxanthine IBMX) and plated out to yield approximately 1×10^4 cells/well in a 96-well. Following this, cells were incubated with agonists for 30 min in the presence of the test compounds. For stimulated control measurements, separate assay wells contain 10 μM PGE2 (control specific agonist). All incubations were carried out at 37° C. in a 5% CO2 atmosphere. Following incubation, the amount of cAMP in each well was determined by HTRF method. The cells are lysed and the fluorescence acceptor (D2-labeled cAMP) and fluorescence donor (anti-cAMP antibody labeled with europium cryptate) are added. After 60 min at room temperature, the fluorescence transfer is measured at λ ex=337 nm and λ em=620 and 665 nm using a microplate reader (Rubystar, BMG).
The cAMP concentration is determined by dividing the signal measured at 665 nm by that measured at 620 nm (ratio).
The standard reference agonist PGE2 was tested at several concentrations to generate a concentration-response curve to determined EC50.
Analysis and Expression of Results
The results are expressed as a percent of control specific agonist response ((measured specific response/control specific agonist response)×100) obtained in the presence of the test compounds. The EC50 values (concentration producing a half-maximal specific response) were determined by non-linear regression analysis of the concentration-response curves generated with mean replicate values using Hill equation curve fitting (Y=D+[(A−D)/(1+(C/C50)nH)], where Y=specific response, D=minimum specific response, A=maximum specific response, C=compound concentration, and C50=EC50 and nH=slope factor). This analysis was performed using a software developed at Cerep (Hill software) and validated by comparison with data generated by the commercial software SigmaPlot® 4.0 for Windows® (© 1997 by SPSS Inc.).

Sequence of recombinant human prostanoid EP2 receptor (P43116 whole entry): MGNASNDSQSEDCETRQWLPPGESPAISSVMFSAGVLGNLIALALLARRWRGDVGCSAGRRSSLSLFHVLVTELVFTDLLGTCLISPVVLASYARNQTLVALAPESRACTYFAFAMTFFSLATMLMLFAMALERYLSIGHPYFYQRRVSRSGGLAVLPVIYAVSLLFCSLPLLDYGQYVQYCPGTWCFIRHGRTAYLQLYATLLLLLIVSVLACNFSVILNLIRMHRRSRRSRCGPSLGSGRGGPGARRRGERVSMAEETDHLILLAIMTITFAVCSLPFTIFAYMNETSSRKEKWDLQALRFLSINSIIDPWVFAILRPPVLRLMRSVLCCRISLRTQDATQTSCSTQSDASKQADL

Turning to `CC(Nc1c(F)ccc(OCC(=O)O)c1F)c1cc(-c2cccc(F)c2)ccc1F` (racemic) [I(as), (R,S)-2-[2,4-difluoro-3-[1-[2-fluoro-5-(3-fluorophenyl)phenyl]ethylamino]phenoxy]acetic acid], the pEC50 was 7.96 and the “In vitro functional assay EP2 (h) % response” value is recorded as 107%.
`C[C@@H](Nc1c(F)ccc(OCC(=O)O)c1F)c1cc(-c2cccc(F)c2)ccc1F` (single isomer, unassigned) [I(as) (+ isomer)]: the pEC50 is 7.74 and the “In vitro functional assay EP2 (h) % response” value is 124%.
Take `O=C(O)COc1cccc(CN(Cc2ccc(-n3cccn3)cc2)S(=O)(=O)c2cccnc2)c1` [CP-544326, reference compound]: the pEC50 was 7.34 and the “In vitro functional assay EP2 (h) % response” value came out at 72%.
For the molecule `O=C(O)COc1cccc(NCc2cc(-c3cccc(F)c3)ccc2F)c1` [I(a), 2-[3-[[2-Fluoro-5-(3-fluorophenyl)phenyl]methylamino]phenoxy]acetic acid], the negative-log EC50 (pEC50) is 6.96 and the “In vitro functional assay EP2 (h) % response” value stood at 74%.
Regarding `Cc1cc(OCC(=O)O)c(F)c(NCc2cc(-c3cccc(F)c3)ccc2F)c1F` [I(ab), 2-[2,4-difluoro-3-[[2-fluoro-5-(3-fluorophenyl)phenyl]methylamino]-5-methyl-phenoxy]acetic acid], the pEC50 was 7.30 and the “In vitro functional assay EP2 (h) % response” value was 105%.
Consider `Cc1cc(OCC(=O)O)c(C)c(NCc2cc(-c3cccc(F)c3)ccc2F)c1F` [I(ac), 2-[4-fluoro-3-[[2-fluoro-5-(3-fluorophenyl)phenyl]methylamino]-2,5-dimethyl-phenoxy]acetic acid], for which the pEC50 is 7.74 and the “In vitro functional assay EP2 (h) % response” value amounted to 117%.
With `Cc1cc(CNc2c(F)ccc(OCC(=O)O)c2C)cc(-c2cccc(F)c2)c1` [I(ae), 2-[4-fluoro-3-[[3-(3-fluorophenyl)-5-methyl-phenyl]methylamino]-2-methyl-phenoxy]acetic acid], the pEC50 was 8.52 and the “In vitro functional assay EP2 (h) % response” value is 83%.
`COc1c(C)cc(-c2cccc(F)c2)cc1CNc1c(F)ccc(OCC(=O)O)c1C` [I(af), 2-[4-fluoro-3-[[5-(3-fluorophenyl)-2-methoxy-3-methyl-phenyl]methylamino]-2-methyl-phenoxy]acetic acid]: the pEC50 was 8.30 and the “In vitro functional assay EP2 (h) % response” value came to 70%.
In the case of `Cc1c(OCC(=O)O)ccc(F)c1NCc1cc(O)cc(-c2cccc(F)c2)c1` [I(ah), 2-[4-fluoro-3-[[3-(3-fluorophenyl)-5-hydroxy-phenyl]methylamino]-2-methyl-phenoxy]acetic acid], the negative-log EC50 (pEC50) was 8.10 and the “In vitro functional assay EP2 (h) % response” value was determined as 74%.
The matching figures for `Cc1cc(CNc2c(F)ccc(OCC(=O)O)c2C)c(F)c(-c2cccc(F)c2)c1` [I(ai), 2-[4-fluoro-3-[[2-fluoro-3-(3-fluorophenyl)-5-methyl-phenyl]methylamino]-2-methyl-phenoxy]acetic acid]: 7.46 and 80%.
The matching figures for `Cc1cc(CNc2c(C)ccc(OCC(=O)O)c2C)cc(-c2cccc(F)c2)c1` [I(aj), 2-[3-[[3-(3-fluorophenyl)-5-methyl-phenyl]methylamino]-2,4-dimethyl-phenoxy]acetic acid]: 8.15 and 79%.
For the molecule `Cc1cc(CNc2c(C)ccc(OCC(=O)O)c2C)c(F)c(-c2cccc(F)c2)c1` [I(am), 2-[3-[[2-Fluoro-3-(3-fluorophenyl)-5-methyl-phenyl]methylamino]-2,4-dimethyl-phenoxy]acetic acid], the pEC50 was 8.52 and the “In vitro functional assay EP2 (h) % response” value is 87%.
Regarding `N#Cc1c(OCC(=O)O)ccc(F)c1NCc1cc(-c2cccc(F)c2)ccc1F` [I(an), 2-[2-cyano-4-fluoro-3-[[2-fluoro-5-(3-fluorophenyl)phenyl]methylamino]phenoxy]acetic acid], the negative logarithm of the EC50 (pEC50) was 8.05 and the “In vitro functional assay EP2 (h) % response” value worked out at 91%.
In the case of `Cc1ccc(OCC(=O)O)c(C)c1NCc1cc(O)cc(-c2cccc(F)c2)c1` [I(ao), 2-[3-[[3-(3-fluorophenyl)-5-hydroxy-phenyl]methylamino]-2,4-dimethyl-phenoxy]acetic acid], the pEC50 is 9.00 and the “In vitro functional assay EP2 (h) % response” value is 76%.
Consider `COc1cc(CNc2c(C)ccc(OCC(=O)O)c2C)cc(-c2cccc(F)c2)c1` [I(ap), 2-[3-[[3-(3-fluorophenyl)-5-methoxy-phenyl]methylamino]-2,4-dimethyl-phenoxy]acetic acid], for which the negative logarithm of the EC50 (pEC50) is 8.52 and the “In vitro functional assay EP2 (h) % response” value is 89%.
The corresponding values for `Cc1cc(-c2ccc(F)c(F)c2)cc(CNc2c(F)ccc(OCC(=O)O)c2F)c1C` [I(aq), 2-[3-[[5-(3,4-difluorophenyl)-2,3-dimethyl-phenyl]methylamino]-2,4-difluoro-phenoxy]acetic acid] are 8.70 and 31%.
For `Cc1cc(-c2cc(F)cc(F)c2)cc(CNc2c(F)ccc(OCC(=O)O)c2F)c1C` [I(ar), 2-[3-[[5-(3,5-difluorophenyl)-2,3-dimethyl-phenyl]methylamino]-2,4-difluoro-phenoxy]acetic acid], the pEC50 was 8.10 and the “In vitro functional assay EP2 (h) % response” value came to 130%.
For the molecule `Cc1cc(-c2ccccc2)cc(CNc2c(F)ccc(OCC(=O)O)c2F)c1C` [I(au), 2-[3-[(2,3-dimethyl-5-phenyl-phenyl)methylamino]-2,4-difluoro-phenoxy]acetic acid], the pEC50 is 7.82 and the “In vitro functional assay EP2 (h) % response” value is 81%.
As for `Cc1c(F)cc(-c2cccc(F)c2)cc1CNc1c(F)ccc(OCC(=O)O)c1C` [I(av), 2-[4-fluoro-3-[[3-fluoro-5-(3-fluorophenyl)-2-methyl-phenyl]methylamino]-2-methyl-phenoxy]acetic acid], the negative-log EC50 (pEC50) was 8.30 and the “In vitro functional assay EP2 (h) % response” value is 97%.
Take `O=C(O)COc1ccc(F)c(NCc2cc(-c3cccc(F)c3)ccc2F)c1F` [I(b), 2-[2,4-Difluoro-3-[[2-fluoro-5-(3-fluorophenyl)phenyl]methylamino]phenoxy]acetic acid]: the pEC50 was 7.55 and the “In vitro functional assay EP2 (h) % response” value is on record as 82%.
Consider `Cc1ccc(-c2cccc(F)c2)cc1CNc1c(F)ccc(OCC(=O)O)c1F` [I(c), 2-[2,4-Difluoro-3-[[5-(3-fluorophenyl)-2-methyl-phenyl]methylamino]phenoxy]acetic acid], for which the negative-log EC50 (pEC50) is 7.16 and the “In vitro functional assay EP2 (h) % response” value was 66%.
With `Cc1cc(CNc2c(F)ccc(OCC(=O)O)c2F)cc(-c2cccc(F)c2)c1` [I(d), 2-[2,4-Difluoro-3-[[3-(3-fluorophenyl)-5-methyl-phenyl]methylamino]phenoxy]acetic acid], the pEC50 was 7.46 and the “In vitro functional assay EP2 (h) % response” value stood at 74%.
On to `O=C(O)COc1ccc(F)c(NCc2cccc(-c3cccc(F)c3)c2)c1F` [I(e), 2-[2,4-Difluoro-3-[[3-(3-fluorophenyl)phenyl]methylamino]phenoxy]acetic acid], for which the pEC50 was 6.80 and the “In vitro functional assay EP2 (h) % response” value is on record as 65%.
In the case of `O=C(O)COc1ccc(F)c(NCc2cc(O)cc(-c3cccc(F)c3)c2F)c1F` [I(f), 2-[2,4-Difluoro-3-[[2-fluoro-3-(3-fluorophenyl)-5-hydroxy-phenyl]methylamino]phenoxy]acetic acid], the pEC50 is 6.80 and the “In vitro functional assay EP2 (h) % response” value is recorded as 61%.
With `Cc1cc(CNc2c(F)ccc(OCC(=O)O)c2F)c(F)c(-c2cccc(F)c2)c1` [I(g), 2-[2,4-difluoro-3-[[2-fluoro-3-(3-fluorophenyl)-5-methyl-phenyl]methylamino]phenoxy]acetic acid], the negative-log EC50 (pEC50) was 7.26 and the “In vitro functional assay EP2 (h) % response” value is recorded as 80%.
Consider `Cc1cc(-c2cccc(F)c2)cc(CNc2c(F)ccc(OCC(=O)O)c2F)c1F` [I(h), 2-[2,4-difluoro-3-[[2-fluoro-5-(3-fluorophenyl)-3-methyl-phenyl]methylamino]phenoxy]acetic acid], for which the negative-log EC50 (pEC50) is 7.89 and the “In vitro functional assay EP2 (h) % response” value is on record as 88%.
For `Cc1ccc(OCC(=O)O)c(F)c1NCc1cc(-c2cccc(F)c2)ccc1F` [I(i), 2-[2-Fluoro-3-[[2-fluoro-5-(3-fluorophenyl)phenyl]methylamino]-4-methyl-phenoxy]acetic acid], the pEC50 was 7.00 and the “In vitro functional assay EP2 (h) % response” value was 73%.
As for `Cc1ccc(OCC(=O)O)c(C)c1NCc1cc(-c2cccc(F)c2)ccc1F` [I(j), 2-[3-[[2-Fluoro-5-(3-fluorophenyl)phenyl]methylamino]-2,4-dimethyl-phenoxy]acetic acid], the pEC50 was 7.59 and the “In vitro functional assay EP2 (h) % response” value stood at 80%.
